Measured values published in patent publication US20230234942A1, “COMPOUNDS FOR TREATING HUNTINGTON'S DISEASE” (PTC Therapeutics, Inc., priority 2020, published 2023).

Test system: Endogenous Huntingtin Protein
Test: Endogenous Huntingtin Protein Assay (ELISA-based MSD electrochemiluminescence)
Assay type: cell-based
Method in brief: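 Endogenous huntingtin measured on MSD plates coated with MW1 (polyglutamine-expanded) or MAB2166 capture antibody; lysates bound overnight at 4 °C. Signal developed with #56565 rabbit monoclonal and goat anti-rabbit SULFO-TAG (0.25 µg/mL, 1 h RT each), electrochemiluminescence read on SI 6000.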

[1] = Table 2, MSD plates coated with MW1 (expanded polyglutamine) or MAB2166 capture antibody, "inactive" = result above the detection limit of the assay

Row | SMILES | IC50 [1] | further results
1 | Cc1nc2ccc(-c3ccc(-c4cnc(N5C[C@@H](C)N[C@@H](C)C5)nn4)c(O)c3)nn2n1 [Cpd 100, 2-{3-[(3R,5S)-3,5-dimethylpiperazin-1-yl]-1,2,4-triazin-6-yl}-5-(2-methyl[1,2,4]triazolo[1,5-b]pyridazin-6-yl)phenol] | 10.9 nM | 
2 | CN1CCN(c2ncc(-c3ncc(-c4cn[nH]c4)cc3O)nn2)CC1 [Cpd 124, 2-[3-(4-methylpiperazin-1-yl)-1,2,4-triazin-6-yl]-5-(1H-pyrazol-4-yl)pyridin-3-ol] | 609 nM | 
3 | Oc1cc(-c2cn[nH]c2)ccc1-c1cnc(N2CCNCC2)nn1 [WO/2019/191229 A1 Cpd 328, reference compound] |  | IC50 (Table 3, selected compounds from WO/2019/191229 A1, same MSD assay): 106 nM
4 | CC(C)[C@H]1CN(c2ncc(-c3ccc(-c4ncns4)cc3O)nn2)C[C@@H](C)N1 (single isomer, unassigned) [Cpd 268, 2-{3-[(3R,5S)-3-methyl-5-(propan-2-yl)piperazin-1-yl]-1,2,4-triazin-6-yl}-5-(1,2,4-thiadiazol-5-yl)phenol or 2-{3-[(3S,5R)-3-methyl-5-(propan-2-yl)piperazin-1-yl]-1,2,4-triazin-6-yl}-5-(1,2,4-thiadiazol-5-yl)phenol] | 124 nM | 
5 | Cc1ccc2oc(-c3ccc(-c4cnc(N5C[C@@H](C)N[C@@H](C)C5)nn4)c(O)c3)cc2n1 [Cpd 120, 2-{3-[(3R,5S)-3,5-dimethylpiperazin-1-yl]-1,2,4-triazin-6-yl}-5-(5-methylfuro[3,2-b]pyridin-2-yl)phenol] |  | IC50 (nM) [1]: inactive
6 | Cc1nc2cc(-c3ccc(-c4cnc(N5CCN[C@@H](C(C)C)C5)nn4)c(O)c3)ccn2n1 [Cpd 147, 5-(2-methyl[1,2,4]triazolo[1,5-a]pyridin-7-yl)-2-{3-[(3S)-3-(propan-2-yl)piperazin-1-yl]-1,2,4-triazin-6-yl}phenol] | 38.8 nM | 
7 | CC(C)[C@H]1CN(c2ncc(-c3ccc(-c4nc(Cl)cs4)cc3O)nn2)CCN1 [Cpd 188, 5-(4-chloro-1,3-thiazol-2-yl)-2-{3-[(3S)-3-(propan-2-yl)piperazin-1-yl]-1,2,4-triazin-6-yl}phenol] | 105 nM | 
8 | C=C[C@H]1CN(c2ncc(-c3ccc(-c4cn[nH]c4)cc3O)nn2)C[C@@H](C)N1 [Cpd 249, 2-{3-[(3S,5R)-3-ethenyl-5-methylpiperazin-1-yl]-1,2,4-triazin-6-yl]-5-(1H-pyrazol-4-yl)phenol] | 319 nM | 
9 | Oc1cc(-n2nccn2)ccc1-c1cnc(N2CCN3CCC[C@H]3C2)nn1 [Cpd 153, 2-{3-[(8aS)-hexahydropyrrolo[1,2-a]pyrazin-2(1H)-yl]-1,2,4-triazin-6-yl}-5-(2H-1,2,3-triazol-2-yl)phenol] | 438 nM | 
10 | Cn1nc2cc(-c3ccc(-c4cnc(N5CCN[C@@H](C6(C)CC6)C5)nn4)c(O)c3)cnc2n1 [Cpd 241, 2-{3-[(3S)-3-(1-methylcyclopropyl)piperazin-1-yl]-1,2,4-triazin-6-yl}-5-(2-methyl-2H-[1,2,3]triazolo[4,5-b]pyridin-6-yl)phenol] | 5.7 nM | 
11 | Oc1cc(-c2c[nH]nc2F)ccc1-c1cnc(N2CCN[C@H](C3CC3)C2)nn1 [Cpd 7, 2-{3-[(3R)-3-cyclopropylpiperazin-1-yl]-1,2,4-triazin-6-yl}-5-(3-fluoro-1H-pyrazol-4-yl)phenol] | 6.9 nM | 
12 | Oc1cc(-c2cn[nH]c2)ccc1-c1cnc(N2CCNC(C3CC3(F)F)C2)nn1 (stereo not shown) [Cpd 36, 2-{3-[3-(2,2-dilluorocyclopropyl)piperazin-1-yl]-1,2,4-triazin-6-yl}-5-(1H-pyrazol-4-yl)phenol] | 47.7 nM | 
13 | CC1(C)CN(c2ncc(-c3ccc(-c4cn[nH]c4)cc3O)nn2)CCN1 [Cpd 56, 2-[3-(3,3-dimethylpiperazin-1-yl)-1,2,4-triazin-6-yl]-5-(1H-pyrazol-4-yl)phenol] | 654 nM | 
14 | Cc1cn2nc(-c3ccc(-c4cnc(N5CCN[C@H](C)C5)nn4)c(O)c3)cc(C)c2n1 [Cpd 98, 5-(2,8-dimethylimidazo[1,2-b]pyridazin-6-yl)-2-{3-[(3R)-3-methylpiperazin-1-yl]-1,2,4-triazin-6-yl]phenol] | 10.2 nM | 
15 | [2H]C([2H])([2H])n1cc(-c2ccc(-c3cnc(N4CCNC(C(C)(C)O)C4)nn3)c(O)c2)cn1 (stereo not shown) [Cpd 19, 2-{3-[3-(2-hydroxypropan-2-yl)piperazin-1-yl]-1,2,4-triazin-6-yl}-5-[1-(^2H3)methyl-1H-pyrazol-4-yl]phenol] | 17.1 nM | 
16 | Cn1cc2cc(-c3ccc(-c4cnc(N5CCN6CCCC6C5)nn4)c(O)c3)cc(F)c2n1 (stereo not shown) [Cpd 95, 5-(7-fluoro-2-methyl-2H-indazol-5-yl)-2-[3-(hexahydropyrrolo[1,2-a]pyrazin-2(1H)-yl)-1,2,4-triazin-6-yl]phenol] | 8.3 nM | 
17 | Cc1cn2cc(-c3cnc(-c4cnc(N5CCN(C)CC5)nn4)c(O)c3)cc(F)c2n1 [Cpd 122, 5-(8-fluoro-2-methylimidazo[1,2-a]pyridin-6-yl)-2-[3-(4-methylpiperazin-1-yl)-1,2,4-triazin-6-yl]pyridin-3-ol] | 41.2 nM | 
18 | C[C@@H]1CN(c2ncc(-c3ccc(-c4cnc5nn(C)nc5c4)cc3O)nn2)C[C@H](C)N1 [Cpd 197, 2-{3-[(3R,5S)-3,5-dimethylpiperazin-1-yl]-1,2,4-triazin-6-yl}-5-(2-methyl-2H-[1,2,3]triazolo[4,5-b]pyridin-6-yl)phenol] | 11.6 nM | 
19 | CC(C)[C@H]1CN(c2ncc(-c3ccc(-c4ncsn4)cc3O)nn2)CCN1 [Cpd 239, 2-{3-[(3S)-3-(propan-2-yl)piperazin-1-yl]-1,2,4-triazin-6-yl}-5-(1,2,4-thiadiazol-3-yl)phenol] | 12.4 nM | 
20 | Cc1cc(-c2ccc(-c3cnc(N4CCNC(C(C)C)C4)nn3)c(O)c2)ccn1 (stereo not shown) [Cpd 44, 5-(2-methylpyridin-4-yl)-2-{3-[3-(propan-2-yl)piperazin-1-yl]-1,2,4-triazin-6-yl}phenol] | 138 nM | 
21 | CC(C)C1CN(c2ncc(-c3ccc(-c4cnn(C)c4)cc3O)nn2)CCN1 (stereo not shown) [Cpd 35, 5-(1-methyl-1H-pyrazol-4-yl)-2-{3-[3-(propan-2-yl)piperazin-1-yl]-1,2,4-triazin-6-yl}phenol] | 46.1 nM | 
22 | COc1cc(-c2cc(O)c(-c3cnc(N4CCN[C@@H](C(C)C)C4)nn3)c(F)c2)ncn1 [Cpd 28, 3-fluoro-5-(6-methoxypyrimidin-4-yl)-2-{3-[(3S)-3-(propan-2-yl)piperazin-1-yl]-1,2,4-triazin-6-yl}phenol] | 26.2 nM | 
23 | COc1nnc(-c2ccc(-c3cnc(N4CCN[C@@H](C(C)C)C4)nn3)c(O)c2)s1 [Cpd 204, 5-(5-methoxy-1,3,4-thiadiazol-2-yl)-2-{3-[(3S)-3-(propan-2-yl)piperazin-1-yl]-1,2,4-triazin-6-yl}phenol] | 162 nM | 
24 | Cc1nc2n(n1)CCN(c1ccc(-c3cnc(N4CCN[C@@H](C(C)C)C4)nn3)c(O)c1)C2 [Cpd 274, 5-(2-methyl-5,6-dihydro[1,2,4]triazolo[1,5-a]pyrazin-7(8H)-yl)-2-{3-[(3S)-3-(propan-2-yl)piperazin-1-yl]-1,2,4-triazin-6-yl}phenol] | 291 nM | 

Now from value to compound, other results behind:

Row | IC50 [1] | SMILES | further results
25 | 256 nM | [2H]C([2H])([2H])n1cc(-c2ccc(-c3cnc(N4C[C@@H](C)N[C@@H](C)C4)nn3)c(O)c2)cn1 [Cpd 49, 2-{3-[(3R,5S)-3,5-dimethylpiperazin-1-yl]-1,2,4-triazin-6-yl}-5-[1-(^2H3)methyl-1H-pyrazol-4-yl]phenol] | 
26 | 13.4 nM | Cc1cn2cc(-c3ccc(-c4cnc(N5C[C@@H](C)N[C@@H](C)C5)nn4)c(O)c3)nc(C)c2n1 [Cpd 103, 5-(2,8-dimethylimidazo[1,2-a]pyrazin-6-yl)-2-{3-[(3R,5S)-3,5-dimethylpiperazin-1-yl]-1,2,4-triazin-6-yl}phenol] | 
27 | 5.8 nM | Cc1cc(-c2ccc(-c3cnc(N4CCN[C@@H](C(C)C)C4)nn3)c(O)c2)cc2cn(C)nc12 [Cpd 140, 5-(2,7-dimethyl-2H-indazol-5-yl)-2-{3-[(3S)-3-(propan-2-yl)piperazin-1-yl]-1,2,4-triazin-6-yl}phenol] | 
28 | 4 nM | Cn1nc2cnc(-c3ccc(-c4cnc(N5CCN[C@@H](C6CC6)C5)nn4)c(O)c3)cc2n1 [Cpd 172, 2-{3-[(3S)-3-cyclopropylpiperazin-1-yl]-1,2,4-triazin-6-yl}-5-(2-methyl-2H-[1,2,3]triazolo[4,5-c]pyridin-6-yl)phenol] | 
29 | 73.8 nM | CC[C@@H]1CN(c2ncc(-c3ccc(-c4cn[nH]c4F)cc3O)nn2)C[C@H](C)N1 [Cpd 218, 2-{3-[(3R,5S)-3-ethyl-5-methylpiperazin-1-yl]-1,2,4-triazin-6-yl}-5-(5-fluoro-1H-pyrazol-4-yl)phenol] | 
30 | 18.8 nM | Cc1cnn(-c2ccc(-c3cnc(N4CCN[C@H](C5CC5)C4)nn3)c(O)c2)n1 [Cpd 183, 2-{3-[(3R)-3-cyclopropylpiperazin-1-yl]-1,2,4-triazin-6-yl}-5-(4-methyl-2H-1,2,3-triazol-2-yl)phenol] | 
31 | 150 nM | CC(C)CC1CN(c2ncc(-c3ccc(-c4cn[nH]c4)cc3O)nn2)CCN1 (stereo not shown) [Cpd 46, 2-{3-[3-(2-methylpropyl)piperazin-1-yl]-1,2,4-triazin-6-yl}-5-(1H-pyrazol-4-yl)phenol] | 
32 | 16.5 nM | Oc1cc(-c2ccsn2)ccc1-c1cnc(N2CCN[C@@H](C3CC3)C2)nn1 [Cpd 252, 2-{3-[(3S)-3-cyclopropylpiperazin-1-yl]-1,2,4-triazin-6-yl}-5-(1,2-thiazol-3-yl)phenol] | 
33 | 53.4 nM | CC[C@H]1CN(c2ncc(-c3ccc(-c4cn[nH]c4)cc3O)nn2)C[C@@H](C)N1 (racemic) [Cpd 148, 2-{3-[rac-(3S,5R)-3-ethyl-5-methylpiperazin-1-yl]-1,2,4-triazin-6-yl}-5-(1H-pyrazol-4-yl)phenol] | 
34 | 19.9 nM | CCc1cc(-c2ccc(-c3cnc(N4CCN[C@@H](C(C)C)C4)nn3)c(O)c2)cn2cc(C)nc12 [Cpd 138, 5-(8-ethyl-2-methylimidazo[1,2-a]pyridin-6-yl)-2-{3-[(3S)-3-(propan-2-yl)piperazin-1-yl]-1,2,4-triazin-6-yl}phenol] | 
